Results from ChEMBL document CHEMBL1201862, “PubChem BioAssay data set” (2004).
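Dose response: 5 concentrations. Exposure: 48 h. Format: 96-well plates. Endpoint: linear interpolation; highest concentration if not reached. Abbreviation: GI50, concentration required for 50% inhibition of growth.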 Activity calls are given as the source filed them. No stated cut-off is given here; in the data, active = GI50 up to about 1.1 µM and inactive = higher.

Experiments:
Assay in all cases: inhibition of tumour cell growth, NCI panel, 48 h
786-0 = system: 786-0
M14 = system: M14
HCT-116 = system: HCT-116
UACC-257 = system: UACC-257
HCT-15 = system: HCT-15
SK-MEL-5 = system: SK-MEL-5
OVCAR-4 = system: OVCAR-4
CCRF-CEM = system: CCRF-CEM
A498 = system: A498
HL-60 = system: HL-60
LOX IMVI = system: LOX IMVI
EKVX = system: EKVX
SK-OV-3 = system: SK-OV-3
IGROV-1 = system: IGROV-1
NCI-H460 = system: NCI-H460
RPMI-8226 = system: RPMI-8226
KM12 = system: KM12
K562 = system: K562
Hs-578T = system: Hs-578T
MDA-MB-435 = system: MDA-MB-435

SMILES	GI50 (786-0)	GI50 (M14)	GI50 (HCT-116)	GI50 (UACC-257)	GI50 (HCT-15) [µM]	GI50 (SK-MEL-5)	GI50 (OVCAR-4)	GI50 (CCRF-CEM)	GI50 (A498)	GI50 (HL-60)	GI50 (LOX IMVI)	GI50 (EKVX)	GI50 (SK-OV-3)	GI50 (IGROV-1)	GI50 (NCI-H460)	GI50 (RPMI-8226)	GI50 (KM12)	GI50 (K562)	GI50 (Hs-578T)	GI50 (MDA-MB-435)
O=C(NCO)NCOCn1c(=O)n(CO)c(=O)n(CO)c1=O	34.6 µM (inactive)	17.1 µM (inactive)	31.6 µM (inactive)	49.9 µM (inactive)	23.8	41.5 µM (inactive)	32.1 µM (inactive)	14.4 µM (inactive)	> 100 µM (inactive)	22.3 µM (inactive)	19 µM (inactive)	> 100 µM (inactive)	99.8 µM (inactive)	> 100 µM (inactive)	33.1 µM (inactive)	25.4 µM (inactive)	31 µM (inactive)	32.1 µM (inactive)	–	–
O=C1NC(=S)NC(=O)C1=Cc1ccc2ccccc2n1	> 100 µM (inactive)	> 100 µM (inactive)	> 100 µM (inactive)	> 100 µM (inactive)	> 100	> 100 µM (inactive)	> 100 µM (inactive)	> 100 µM (inactive)	> 100 µM (inactive)	> 100 µM (inactive)	> 100 µM (inactive)	> 100 µM (inactive)	> 100 µM (inactive)	> 100 µM (inactive)	> 100 µM (inactive)	> 100 µM (inactive)	> 100 µM (inactive)	> 100 µM (inactive)	–	–
O=[N+]([O-])C(=C(N1CCOCC1)N1CCOCC1)/C(Cl)=C(\Cl)Br	25.4 µM (inactive)	13.4 µM (inactive)	17.1 µM (inactive)	17.3 µM (inactive)	15.2	–	18.4 µM (inactive)	2.65 µM (inactive)	37.4 µM (inactive)	3.86 µM (inactive)	19.3 µM (inactive)	17.1 µM (inactive)	–	–	> 100 µM (inactive)	14.5 µM (inactive)	31.4 µM (inactive)	15.2 µM (inactive)	> 100 µM (inactive)	–
NC1Cc2ccccc2OC1=O (stereo not given)	> 100 µM (inactive)	> 100 µM (inactive)	–	> 100 µM (inactive)	> 100	> 100 µM (inactive)	–	–	–	–	–	> 100 µM (inactive)	> 100 µM (inactive)	> 100 µM (inactive)	> 100 µM (inactive)	> 100 µM (inactive)	> 100 µM (inactive)	> 100 µM (inactive)	> 100 µM (inactive)	> 100 µM (inactive)
c1ccc(CN2CCC3(CC2)SSC2(CCN(Cc4ccccc4)CC2)S3)cc1	> 100 µM (inactive)	66.5 µM (inactive)	50.8 µM (inactive)	26.7 µM (inactive)	38.8	–	52.4 µM (inactive)	65.9 µM (inactive)	–	78 µM (inactive)	48.8 µM (inactive)	–	> 100 µM (inactive)	> 100 µM (inactive)	25.6 µM (inactive)	20.1 µM (inactive)	45.3 µM (inactive)	71.6 µM (inactive)	17.7 µM (inactive)	31.3 µM (inactive)
CC(C)[Si]1(C(C)C)OCC2OC3(CO)C(Oc4nc(=O)ccn43)C2O[Si](C(C)C)(C(C)C)O1 (stereo not given)	14.6 µM (inactive)	14.8 µM (inactive)	10.9 µM (inactive)	14.7 µM (inactive)	15	13.5 µM (inactive)	13.1 µM (inactive)	5.14 µM (inactive)	–	6.17 µM (inactive)	15 µM (inactive)	17.1 µM (inactive)	20 µM (inactive)	17.3 µM (inactive)	15 µM (inactive)	5.81 µM (inactive)	13.3 µM (inactive)	21 µM (inactive)	22.4 µM (inactive)	15 µM (inactive)
CC(C)CCC[C@@H](C)C1CCC2[C@@H]3CC=C4C[C@@H](C(=O)NCC[N+](C)(C)CCCS(=O)(=O)[O-])CC[C@]4(C)C3CC[C@@]21C (stereo not given in full)	17.2 µM (inactive)	17.2 µM (inactive)	16.8 µM (inactive)	20 µM (inactive)	16.3	19.9 µM (inactive)	20.3 µM (inactive)	16.2 µM (inactive)	> 10 µM (inactive)	13.4 µM (inactive)	11.7 µM (inactive)	16.9 µM (inactive)	16.8 µM (inactive)	17.3 µM (inactive)	15.7 µM (inactive)	20.4 µM (inactive)	17.4 µM (inactive)	14.2 µM (inactive)	–	–
CCOC(=O)Nn1cnnc1C	> 100 µM (inactive)	> 100 µM (inactive)	> 100 µM (inactive)	> 100 µM (inactive)	> 100	> 100 µM (inactive)	> 100 µM (inactive)	> 100 µM (inactive)	> 100 µM (inactive)	–	> 100 µM (inactive)	> 100 µM (inactive)	> 100 µM (inactive)	> 100 µM (inactive)	> 100 µM (inactive)	> 100 µM (inactive)	> 100 µM (inactive)	> 100 µM (inactive)	–	> 100 µM (inactive)
COc1c(F)c(F)c(C(=O)/C=C2\Nc3ccccc3NC2=O)c(F)c1F	2.32 µM (inactive)	> 10 µM (inactive)	–	> 10 µM (inactive)	> 10	8.95 µM (inactive)	2.48 µM (inactive)	> 10 µM (inactive)	–	> 10 µM (inactive)	2.89 µM (inactive)	> 10 µM (inactive)	4.57 µM (inactive)	7.33 µM (inactive)	–	> 10 µM (inactive)	8.22 µM (inactive)	> 10 µM (inactive)	–	> 10 µM (inactive)
CC(/C=C/NNC1=NN=C(c2ccccc2)C(c2ccccc2)N1)Sc1ccccc1N (stereo not given)	3.71 µM (inactive)	3.41 µM (inactive)	6.14 µM (inactive)	7.06 µM (inactive)	4.89	9.66 µM (inactive)	6.21 µM (inactive)	2.46 µM (inactive)	13.6 µM (inactive)	2.36 µM (inactive)	3.18 µM (inactive)	18.5 µM (inactive)	17.1 µM (inactive)	14.4 µM (inactive)	9.98 µM (inactive)	3.64 µM (inactive)	8.85 µM (inactive)	6.24 µM (inactive)	–	–
OC(c1ccc(F)cc1)C(F)(F)c1nc2ccccc2o1 (stereo not given)	> 100 µM (inactive)	> 100 µM (inactive)	> 100 µM (inactive)	57.4 µM (inactive)	> 100	50 µM (inactive)	> 100 µM (inactive)	> 100 µM (inactive)	34.4 µM (inactive)	> 100 µM (inactive)	> 100 µM (inactive)	> 100 µM (inactive)	> 100 µM (inactive)	> 100 µM (inactive)	> 100 µM (inactive)	90.6 µM (inactive)	44.3 µM (inactive)	30.8 µM (inactive)	–	> 100 µM (inactive)
O=C(/C=C/c1ccc(C(F)(F)F)cc1)c1c([O-])on[n+]1-c1ccccc1	0.531 µM (active)	2.3 µM (inactive)	1.75 µM (inactive)	2.12 µM (inactive)	1.31	2.8 µM (inactive)	5.33 µM (inactive)	0.108 µM (active)	7.05 µM (inactive)	0.173 µM (active)	0.403 µM (active)	2.24 µM (inactive)	14.3 µM (inactive)	1.86 µM (inactive)	2.29 µM (inactive)	0.261 µM (active)	1.83 µM (inactive)	0.395 µM (active)	–	1.86 µM (inactive)
Clc1cc(Cl)ncn1	> 100 µM (inactive)	> 100 µM (inactive)	> 100 µM (inactive)	–	> 100	> 100 µM (inactive)	> 100 µM (inactive)	> 100 µM (inactive)	–	–	> 100 µM (inactive)	–	> 100 µM (inactive)	> 100 µM (inactive)	> 100 µM (inactive)	40.9 µM (inactive)	> 100 µM (inactive)	> 100 µM (inactive)	> 100 µM (inactive)	> 100 µM (inactive)
COC(=O)C1=Cc2cc(OC)c(OC)c(OC)c2[C@H](c2cc(OC)c(OC)c(OC)c2)C1C(=O)OC (stereo not given in full)	> 100 µM (inactive)	> 100 µM (inactive)	> 100 µM (inactive)	> 100 µM (inactive)	> 100	> 100 µM (inactive)	> 100 µM (inactive)	> 100 µM (inactive)	> 100 µM (inactive)	> 100 µM (inactive)	> 100 µM (inactive)	> 100 µM (inactive)	> 100 µM (inactive)	> 100 µM (inactive)	> 100 µM (inactive)	> 100 µM (inactive)	> 100 µM (inactive)	> 100 µM (inactive)	–	–
CN(C)CCNc1ccc([N+](=O)[O-])c2sc3ccccc3c(=O)c12	3.38 µM (inactive)	6.71 µM (inactive)	2.47 µM (inactive)	6.28 µM (inactive)	3.67	8.63 µM (inactive)	3.1 µM (inactive)	2.26 µM (inactive)	–	2.66 µM (inactive)	–	4.5 µM (inactive)	7.71 µM (inactive)	1.73 µM (inactive)	1.65 µM (inactive)	2.64 µM (inactive)	5.19 µM (inactive)	4.43 µM (inactive)	5.52 µM (inactive)	5.19 µM (inactive)
C1CN(P2(N3CC3)=NP(N3CC3)(N3CC3)=NP(N3CC3)(N3CC3)=N2)CCO1 (stereo not given) [FOTRETAMINE]	55.3 µM (inactive)	> 100 µM (inactive)	> 100 µM (inactive)	83.8 µM (inactive)	> 100	> 100 µM (inactive)	> 100 µM (inactive)	23 µM (inactive)	> 100 µM (inactive)	36.6 µM (inactive)	72.4 µM (inactive)	> 100 µM (inactive)	> 100 µM (inactive)	> 100 µM (inactive)	4.57 µM (inactive)	> 95.7 µM (inactive)	> 100 µM (inactive)	> 77.8 µM (inactive)	–	–
